This note sets out measurements from patent publication US4315026A, “Alkylpolyoxysulfinyl and alkylpolythiosulfinyl derivatives of carbamate esters” (priority 1980, dated 1982).

The structures appear in SMILES notation. Where two headings read alike, the source gives them in different places.

The test system of data set [1] is house flies, Musca domestica. Briefly: whole plant or invertebrate. The format is in vivo. Particulars: read-out: House flies LD50.
Protocol: In another series of tests, stock 1% concentrated solutions of each of the test compounds of Table I below, and of the commercial related carbamate ester insecticides methomyl, carbofuran and oxamyl, were made in acetone, and such solutions were diluted with acetone to a concentration of 0.001-0.8%. House flies were treated topically on the notum by 1 μl of each of the diluted acetone solutions and percent mortality was counted 24 hours after application.
Data set [2] can be described thus: Mammalian toxicity, oral, Swiss white mice (LD50). Format: in vivo. The note with it: mouse, in vivo, propylene glycol carrier. As to the method:
For mice toxicity, the compound was dissolved in propyleneglycol or corn oil as a carrier and all compounds were tested at the level up to 1,000 mg/kg. All of the above noted compounds tested were lower in toxicity as compared with the parent compounds.
Mammalian toxicity was determined against Swiss white mice.

Setting [3] is: topical on the notum, 1 μl of 0.001-0.8% acetone solutions, 24 hours, 60° F.

Usually LD50 stands for the dose at which mortality reaches 50%. For the compound `CSC(C)=NOC(=O)N(C)S(=O)OCCOS(=O)N(C)C(=O)ON=C(C)SC` (stereo not shown) [Example I, N,N'-(1,2-ethanedioxysulfinyl)-bis (S-methyl N-methylcarbamoyloxy-thioacetimidate)], the LD50 in data set [1] (setting [3]) came out at 60 mg/kg; in data set [2] it was 52 mg/kg. For `CN(C(=O)Oc1cccc2c1OC(C)(C)C2)S(=O)OCCCOS(=O)N(C)C(=O)Oc1cccc2c1OC(C)(C)C2` (stereo not shown) [Example II, N,N'-(1,3-Propanedioxysulfinyl)-bis (2,3-dihydro-2,2-dimethylbenzofuranyl-7 methylcarbamate)], the LD50 in data set [1] (topical, 24 h) came to 17 mg/kg; in data set [2], 92 mg/kg. Regarding `CSC(C)=NOC(=O)N(C)S(=O)OCC1COC(C)(C)O1` (stereo not shown) [Example III, S-methyl N-(2,2-dimethyl-1,3-dioxolane-5-yl-methoxysulfinyl)-N-methylcarbamoyloxythioacetimidate], the LD50 came to 7 mg/kg in data set [1] (setting [3]) and 84 mg/kg in data set [2]. Taken in the same sequence, the figures for `CSC(C)=NOC(=O)N(C)[S+]([O-])SCCS[S+]([O-])N(C)C(=O)ON=C(C)SC` (stereo not shown) [Example VIII, N,N'-(1,2-Ethanedithiosulfinyl)-bis (S-methyl N-methylcarbamoyloxy thioacetimidate)] were 75 mg/kg and 250 mg/kg. For `CN(C(=O)Oc1cccc2c1OC(C)(C)C2)[S+]([O-])SCCS[S+]([O-])N(C)C(=O)Oc1cccc2c1OC(C)(C)C2` (stereo not shown) [IX], the LD50 is 36 mg/kg in data set [1] (topical, 24 h) and 87 mg/kg in data set [2]. Take `CSC(C)=NOC(=O)N(C)S(=O)OC1COC(c2ccccc2)OC1` (stereo not shown) [X, S-Methyl N-(2-phenyl-1,3-dioxane-5-ylmethoxysulfinyl)N-methylcarbamoyloxythioacetimidate]: the LD50 in data set [2] was 85 mg/kg. Turning to `C=CCOCC(COS(=O)N(C)C(=O)ON=C(C)SC)OS(=O)N(C)C(=O)ON=C(C)SC` (stereo not shown) [XI, N,N'-(3-Allyloxy-1,2-propanedioxysulfinyl)-bis (S-methyl N-methylcarbamoyloxythioacetimidate)], the figures for the LD50 in data set [1] (setting [3]) and in data set [2] were 40 mg/kg and 50 to 80 mg/kg, respectively. With `C=CCOC(COS(=O)N(C)C(=O)ON=C(C)SC)COS(=O)N(C)C(=O)ON=C(C)SC` (stereo not shown) [XII, N,N'-(2-Allyloxy-1,3-propanedioxysulfinyl)-bis (S-methyl N-methylcarbamoyloxythioacetimidate)], the values for the LD50 in data set [1] (setting [3]) and in data set [2] were less than 50 mg/kg and 88 mg/kg, respectively.

In the case of `CSC(C)=NOC(=O)N(C)S(=O)OCC(COCc1ccccc1)OS(=O)N(C)C(=O)ON=C(C)SC` (stereo not shown) [XIII, N,N'-(3-Benzyloxy-1,2-propanedioxysulfinyl)-bis (S-methyl N-methylcarbamoyloxythioacetimidate)], the LD50 is less than 50 mg/kg in data set [1] (setting [3]) and 50 to 100 mg/kg in data set [2]. Consider `CSC(C)=NOC(=O)N(C)S(=O)OCC(COC(C)C)OS(=O)N(C)C(=O)ON=C(C)SC` (stereo not shown) [XIV, N,N'-(3-Isopropoxy-1,2-propanedioxysulfinyl)-bis (S-methyl N-methylcarbamoyloxythioacetimidate)], for which the figures for the LD50 in data set [1] (setting [3]) and in data set [2] were 81.5 mg/kg and 170 mg/kg, respectively. As to `C=CCOCC(COS(=O)N(C)C(=O)Oc1cccc(C)c1)OS(=O)N(C)C(=O)Oc1cccc(C)c1` (stereo not shown) [XIX, N,N'-(3-Allyloxy-1,2-propanedioxysulfinyl)-bis (3-methylphenyl methylcarbamate)], the LD50 in data set [2] was greater than 1000 mg/kg.

Consider `CSC(C)=NOC(=O)N(C)S(=O)OCC(COS(=O)N(C)C(=O)ON=C(C)SC)OS(=O)N(C)C(=O)ON=C(C)SC` (stereo not shown) [XV, N,N',N",-(1,2,3-Propanetrioxysulfinyl)-tris (S-methyl N-methylcarbamoyloxythioacetimidate)], for which, in data set [2], the LD50 was 50 to 100 mg/kg.

Take `CSC(C)=NOC(=O)N(C)S(=O)OCC12OCC3OC(C)(C)OC3C1OC(C)(C)O2` (stereo not drawn) [XVI, S-Methyl N-(2,3,4,5-di-O-isopropylidene-1-α-O-fructopyranosylsulfinyl)-N-methylcarbamoyloxythioacetimidate]: the LD50 in data set [1] (setting [3]) came out at 50 mg/kg; in data set [2], 500 mg/kg. Taken in the same sequence, the figures for `CSC(C)=NOC(=O)N(C)S(=O)OC1C2OC(C)(C)OC2COC12COC(C)(C)O2` (stereo not shown) [XVII, S-Methyl N-(1,2,4,5-di-O-isopropylidene-3-O-fructopyranosylsulfinyl)-N-methylcarbamoyloxythioacetimidate] were 115 mg/kg and 1000 mg/kg. As for `Cc1cccc(OC(=O)N(C)S(=O)OCC2COC(C)(C)O2)c1` (stereo not shown) [XX, 3-Methylphenyl N-(2,2-dimethyl-1,3-dioxolane-5-ylmethoxysulfinyl)-N-methylcarbamate], the LD50 in data set [2] was greater than 1000 mg/kg.

The compound `C=CCOC(COS(=O)N(C)C(=O)Oc1cccc(C)c1)COS(=O)N(C)C(=O)Oc1cccc(C)c1` (stereo not shown) [XXI, N,N'-(2-Allyloxy-1,3-propanedioxysulfinyl)-bis (3-methylphenyl methylcarbamate)] returned an LD50 in data set [2] greater than 1000 mg/kg.

In data set [2], `Cc1cccc(OC(=O)N(C)S(=O)OCC(COCc2ccccc2)OS(=O)N(C)C(=O)Oc2cccc(C)c2)c1` (stereo not shown) [XXII, N,N'-(3-Benzyloxy-1,2-propanedioxysulfinyl)-bis (3-methylphenyl methylcarbamate)] had an LD50 greater than 1000 mg/kg. Same read-out and setting: for `Cc1cccc(OC(=O)N(C)S(=O)OCC(COC(C)C)OS(=O)N(C)C(=O)Oc2cccc(C)c2)c1` (stereo not shown) [XXIII, N,N'-(3-Isopropoxy-1,2-propanedioxysulfinyl)-bis (3-methyl-phenyl methylcarbamate)] the value was greater than 1000 mg/kg. The same measure, in the same setting: the same measure for `Cc1cccc(OC(=O)N(C)S(=O)OCC23OCC4OC(C)(C)OC4C2OC(C)(C)O3)c1` (stereo not drawn) [XXIV, 3-Methylphenyl N-(2,3,4,5-di-O-isopropylidene-1-α-O-fructopyranosylsulfinyl)-N-methylcarbamate]: greater than 1000 mg/kg. Take `C=CCOCC(COS(=O)N(C)C(=O)ON=C(SC)C(=O)N(C)C)OS(=O)N(C)C(=O)ON=C(SC)C(=O)N(C)C` (stereo not shown) [XXIX, N,N'-(3-Allyloxy-1,2-propanedioxysulfinyl)-bis[S-methyl N-methylcarbamoyloxy-2-(N',N'-dimethylamino)-2-oxoethanimidothioate]]: the LD50 in data set [1] (setting [3]) is 215 mg/kg; in data set [2], 12.5 to 25 mg/kg. As to `Cc1cccc(OC(=O)N(C)S(=O)OC2C3OC(C)(C)OC3COC23COC(C)(C)O3)c1` (stereo not shown) [XXV, 3-Methylphenyl N-(1,2,4,5-di-O-isopropylidene-3-O-fructopyranosylsulfinyl)-N-methylcarbamate], the LD50 in data set [2] was greater than 1000 mg/kg. In data set [2], `Cc1cccc(OC(=O)N(C)S(=O)OC2C(C3COC(C)(C)O3)OC3OC(C)(C)OC32)c1` (stereo not shown) [XXVI, 3-Methylphenyl N-(1,2,5,6-di-O-isopropylidene-3-O-glucofuranosylsulfinyl)-N-methylcarbamate] returned an LD50 greater than 1000 mg/kg. Still for that read-out and setting: the same measure for `CSC(=NOC(=O)N(C)S(=O)OCC(COCc1ccccc1)OS(=O)N(C)C(=O)ON=C(SC)C(=O)N(C)C)C(=O)N(C)C` (stereo not shown) [XXXI, N,N'-(3-Benzyloxy-1,2-propanedioxysulfinyl)-bis-[S-methylcarbamoyloxy-2-(N',N'-dimethylamino)-2-oxoethanimidothioate]]: 12.5 to 25 mg/kg. The same measure, in the same setting: for `CSC(=NOC(=O)N(C)S(=O)OCC(COC(C)C)OS(=O)N(C)C(=O)ON=C(SC)C(=O)N(C)C)C(=O)N(C)C` (stereo not shown) [XXXII, N,N'-(3-Isopropoxy-1,2-propanedioxysulfinyl)-bis[S-methyl N-methylcarbamoyloxy-2-(N',N'-dimethylamino)-2-oxoethanimidothioate]] the value was 16 mg/kg.

The compound `CC(C)OCC(COS(=O)N(C)C(=O)Oc1cccc2ccccc12)OS(=O)N(C)C(=O)Oc1cccc2ccccc12` (stereo not shown) [XXXIX, N,N'-(3-Isopropoxy-1,2-propanedioxysulfinyl)-bis(1-naphthyl methylcarbamate)] showed an LD50 in data set [2] greater than 1000 mg/kg. The same measure, in the same setting: for `C=CCOCC(COS(=O)N(C)C(=O)Oc1cccc2ccccc12)OS(=O)N(C)C(=O)Oc1cccc2ccccc12` (stereo not shown) [XXXVI, N,N'-(3-Allyloxy-1,2-propanedioxysulfinyl)-bis(1-naphthyl methylcarbamate)] the value was greater than 1000 mg/kg; for `C=CCOC(COS(=O)N(C)C(=O)Oc1cccc2ccccc12)COS(=O)N(C)C(=O)Oc1cccc2ccccc12` (stereo not shown) [XXXVII, N,N'-(2-Allyloxy-1,3-propanedioxysulfinyl)-bis(1-naphthyl methylcarbamate)], greater than 1000 mg/kg.

Consider `CN(C(=O)Oc1cccc2ccccc12)S(=O)OCC(COCc1ccccc1)OS(=O)N(C)C(=O)Oc1cccc2ccccc12` (stereo not shown) [XXXVIII, N,N'-(3-Benzyloxy-1,2-propanedioxysulfinyl)-bis(1-naphthyl methylcarbamate)], for which the 50% lethal dose (LD50) in data set [2] is greater than 1000 mg/kg. Same read-out and setting: for `CN(C(=O)Oc1cccc2ccccc12)S(=O)OCC(COS(=O)N(C)C(=O)Oc1cccc2ccccc12)OS(=O)N(C)C(=O)Oc1cccc2ccccc12` (stereo not shown) [XXXX, N,N',N"-(1,2,3-Propanetrioxysulfinyl)-tris-(1-naphthyl methylcarbamate)] the value was greater than 1000 mg/kg; for `CN(C(=O)Oc1cccc2ccccc12)S(=O)OCC12OCC3OC(C)(C)OC3C1OC(C)(C)O2` (stereo not drawn) [XXXXI, 1-Naphthyl N-(2,3,4,5-di-O-isopropylidene-1-α-O-fructopyranosylsulfinyl)-N-methylcarbamate], greater than 1000 mg/kg. Same read-out and setting: the same measure for `CN(C(=O)Oc1cccc2ccccc12)S(=O)OC1C2OC(C)(C)OC2COC12COC(C)(C)O2` (stereo not drawn) [XXXXII, 1-Naphthyl N-(1,2,4,5-di-O-isopropylidene-3-α-O-fructopyranosylsulfinyl)-N-methylcarbamate]: greater than 1000 mg/kg; for `CC(C)Oc1ccccc1OC(=O)N(C)S(=O)OCC(COS(=O)N(C)C(=O)Oc1ccccc1OC(C)C)OS(=O)N(C)C(=O)Oc1ccccc1OC(C)C` (stereo not shown) [XXXXIII, N,N',N"(1,2,3-Propanetrioxysulfinyl)-tris-(2-isopropoxyphenyl methylcarbamate)]: greater than 1000 mg/kg. On the same count and under the same terms, for `CC(C)Oc1ccccc1OC(=O)N(C)S(=O)OCC12OCC3OC(C)(C)OC3C1OC(C)(C)O2` (stereo not drawn) [XXXXIV, 2-Isopropoxyphenyl N-(2,3,4,5-di-O-isopropylidene-1-α-O-fructopyranosylsulfinyl)-N-methylcarbamate] the value was greater than 1000 mg/kg. As for `CNC(=O)ON=C(C)SC` [methomyl, reference compound], in data set [1] (setting [3]), the 50% lethal dose (LD50) came out at 3.7 mg/kg.
